What was measured:
MTT assay, MCF-12A = type: cell-based; details: human, MCF-12A cells (non-tumorigenic breast epithelial), read-out: Cytotoxic activity IC50, MCF-12A
Procedure: (§1) The cell lines used in the cytotoxicity study, besides MCF-12A, were purchased from European Collection of Cell Culture (ECACC, Salisbury, UK): HEK293 (human embryonic kidney, ATTC no. CRL-1573), A549 (Human lung carcinoma, ECACC no. 86012804), CCD39Lu (Human lung fibroblasts, ECACC no. 90110512), MCF-7 (Human breast adenocarcinoma, ECACC no. 86012803) and MDA-MB-231 (Human breast adenocarcinoma ECACC no. 92020424). Cell lines were cultured in DMEM medium without phenol red and supplemented with 10% (v/v) FBS, 1% penicillin-streptomycin and 1% L-glutamine. MCF-12A (ATTC no. […]) was purchased from American Type Culture Collection (ATCC Manassas, VA 20110 USA). MCF-12A cells were kept in 1:1 mixture of Dulbecco’s modified Eagle’s medium and Ham’s F12 medium, 20 ng/ml human epidermal growth factor, 100 ng/ml cholera toxin, 0.01 mg/ml bovine insulin, 500 ng/ml hydrocortisone and 5% horse serum. All cell lines were cultured at 37°C, in a humidified atmosphere containing 5% CO2.
(§2) Compounds were dissolved in DMSO to the final concentration of […]. A549, CCD39Lu, MCF-7, MDA-MB-231 and MCF-12A cells were seeded in 96 wells plates at density 2x10^4 cells/well and incubated overnight as described above. Subsequently, cells were treated with tested compounds at concentrations: 100 μM; 50 μM; 25μM; 12.5μM; 6 μM; 3 μM; 1.5 μM. […] Cells were incubated 72 h at 37°C in a humidified atmosphere containing 5% CO2 in the cell culture media appropriate for each cell line. Then, the medium was aspirated and 170 μl MTT solution (5mg/ml) was added to each well. Plates were incubated for 2 hours at 37°C, and then plates were centrifuged at 1200 rpm for 3 minutes. The formazan crystals were dissolved in 200 μl DMSO and plates were further agitated on a plate shaker at 300–500 rpm for 10 minutes. Absorbance at 570 nm (with reference wavelenght 650 nm) was measured using a plate reader (Biotek Instruments, Elx-800). Cell viability was calculated as a percentage relative to the control.

MCF-7 cells = assay: MTT assay, MCF-7; type: cell-based, human; details: for IC50: Homo sapiens, MCF7, 72 h, estrogen dependent breast adenocarcinoma, read-out: Cytotoxic activity IC50, MCF-7; for Activity in MTT assay (in words), MCF-7: 72 h
Procedure: as §1, §2

MDA-MB-231 cells = assay: MTT assay, MDA-MB-231; type: cell-based, human; details: Homo sapiens, MDA-MB-231, 72 h, estrogen independent breast adenocarcinoma, read-out: Cytotoxic activity IC50, MDA-MB-231
Procedure: as §1, §2

MTT assay, CCD39Lu = type: cell-based; details: human, CCD39Lu cells (non-tumorigenic lung fibroblasts), read-out: Cytotoxic activity IC50, CCD39Lu
Procedure: as §1, §2

A549 cells = assay: MTT assay, A549; type: cell-based; details: Homo sapiens, 72 h, lung adenocarcinoma, read-out: Cytotoxic activity IC50, A549
Procedure: as §1, §2

human ERα receptor = target: T1, human ERα receptor (Homo sapiens, UniProt P03372); assay: Estrogen Receptor luciferase assay in HEK293 cells transfected with ERα; type: cell-based; details: HEK293 transfected with ERα and luciferase reporter, compared with estradiol, Fig 3A/3B
T1 construct: host or cells: HEK293
T1 sequence (P03372 1-595): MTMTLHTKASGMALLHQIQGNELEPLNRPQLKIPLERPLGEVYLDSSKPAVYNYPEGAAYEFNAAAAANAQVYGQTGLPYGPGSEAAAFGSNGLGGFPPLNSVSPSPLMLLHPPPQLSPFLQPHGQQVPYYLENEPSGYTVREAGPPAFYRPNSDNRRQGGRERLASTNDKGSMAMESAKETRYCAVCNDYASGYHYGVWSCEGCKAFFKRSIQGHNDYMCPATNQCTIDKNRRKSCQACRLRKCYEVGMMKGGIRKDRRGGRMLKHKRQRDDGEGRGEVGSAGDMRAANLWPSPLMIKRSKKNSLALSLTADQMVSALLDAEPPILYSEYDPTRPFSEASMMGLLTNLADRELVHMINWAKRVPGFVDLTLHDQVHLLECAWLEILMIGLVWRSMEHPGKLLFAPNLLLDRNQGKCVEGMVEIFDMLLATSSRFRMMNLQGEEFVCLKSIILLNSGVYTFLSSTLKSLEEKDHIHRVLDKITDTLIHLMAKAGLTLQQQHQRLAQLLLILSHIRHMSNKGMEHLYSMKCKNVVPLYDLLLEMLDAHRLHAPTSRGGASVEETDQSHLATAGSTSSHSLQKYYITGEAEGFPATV
From the text: (§3) To obtain a eukaryotic vector expressing only the ER-α nuclear receptor, a construct was designed by cloning a KpnI-BamHI fragment from plasmid pEGFP-C1-ERα containing the ERα coding sequence that includes a stop signal into the pEGFP-N3 plasmid (Clontech Laboratories, Palo Alto, CA) under the control of the CMV promoter. This construction was termed pEGFP-N-ERα, and although it encoded both human ERα receptor and GFP protein, only the former is expressed. For mock transfections, pEGFP-N3 plasmid was digested with BglII and NotI and religated after polishing DNA ends to remove GFP coding sequence. Plasmid sequence was confirmed by automatic sequencing. Prior to transfection, cells were seeded in 48 well plates at density of 1.5 x 10^4 cells/well and incubated for 24 h to reach a cell confluence of 80–90%. […] MCF-7 cells, which endogenously express ERα receptor, were transfected with p3xERRE/ERE-luciferase plus the pRLTK Renilla luciferase control plasmid (95:5). Firefly and Renilla luciferase activities were measured using the Dual Luciferase Assay System (Promega, Madison, WI, USA), following a standard protocol using a Sirius L luminometer (Berthold Technologies, Bad Wildbad, Germany). Data were expressed as relative changes in luciferase activity and normalized to 100%.

estrogen receptor = target: T2, estrogen receptor (Homo sapiens, UniProt P03372); assay: Estrogen Receptor luciferase assay in MCF-7 cells (endogenous ER); type: cell-based; details: MCF-7 transfected with p3xERRE/ERE-luciferase, Fig 3C
T2 construct: MCF-7 cells, which endogenously express ERα receptor; endogenous in cells; host or cells: MCF-7
T2 sequence (P03372 1-595): T1 sequence (P03372 1-595)
From the text: as §3

Row | Structure (SMILES) | IC50 at 72 h (MTT assay, MCF-12A) | IC50 (MCF-7 cells) | IC50 (MDA-MB-231 cells) | IC50 at 72 h (MTT assay, CCD39Lu) | IC50 (A549 cells) | ER dependent transcriptional activity (human ERα receptor) | Activity in MTT assay (in words), MCF-7 (MCF-7 cells) | Transcriptional (luciferase) activity in MCF-7 (estrogen receptor)
1 | COc1ccc(NC(=O)c2ccccc2[N+](=O)[O-])cc1 [Compound 1] | > 100 µM | 74.9 µM | 79.8 µM | 96.3 µM | 92.4 µM | – | – | –
2 | COc1ccc(NC(=O)c2ccc(F)cc2[N+](=O)[O-])cc1 [Compound 2] | > 100 µM | 38.3 µM | 39.7 µM | 45.2 µM | 47.6 µM | did not stimulate ER dependent transcriptional activity | significant activity | –
3 | COc1ccc(NC(=O)c2cc(Cl)ccc2[N+](=O)[O-])cc1 [Compound 3] | > 100 µM | > 100 µM | > 100 µM | > 100 µM | > 100 µM | – | – | –
4 | COc1ccc(NC(=O)c2ccc(OC)cc2[N+](=O)[O-])cc1 [Compound 4] | > 100 µM | 28.4 µM | 67 µM | 48.8 µM | 30.1 µM | did not stimulate ER dependent transcriptional activity | significant activity | –
5 | COc1ccc(NC(=O)c2cc(C)c(C)cc2[N+](=O)[O-])cc1 [Compound 5] | > 100 µM | > 100 µM | 92 µM | > 100 µM | > 100 µM | – | – | –
6 | COc1cc(NC(=O)c2cc(C)c(C)cc2[N+](=O)[O-])cc(OC)c1OC [Compound 6] | > 100 µM | 24.7 µM | > 100 µM | > 100 µM | > 100 µM | capable to mediate ER dependent transcriptional activity in a similar mode than estradiol | significant activity | much lower
7 | COc1cc(NC(=O)c2ccccc2[N+](=O)[O-])cc(OC)c1OC [Compound 7] | > 100 µM | > 100 µM | > 100 µM | > 100 µM | 93.1 µM | – | – | –
8 | O=C(Nc1cc(F)c(F)c(F)c1)c1ccccc1[N+](=O)[O-] [Compound 8] | > 100 µM | > 100 µM | > 100 µM | > 100 µM | > 100 µM | – | – | –

Reference: article PMC4701221, “Novel Promising Estrogenic Receptor Modulators: Cytotoxic and Estrogenic Activity of Benzanilides and Dithiobenzanilides” (PLoS ONE, 2016)
